Data reported in patent US9447157B2, “Nitration shielding peptides and methods of use thereof” (Augusta University Research Institute, Inc., priority 2013, dated 2016).

Target: T1, PKG-1α (Homo sapiens, UniProt Q13976)
T1 construct: transfected with an expression plasmid containing a full length WT-PKG-1α cDNA; made in house; host or cells: HEK-293T (methods); the results paragraph b527 says PASMC
T1 sequence (Q13976 2-671): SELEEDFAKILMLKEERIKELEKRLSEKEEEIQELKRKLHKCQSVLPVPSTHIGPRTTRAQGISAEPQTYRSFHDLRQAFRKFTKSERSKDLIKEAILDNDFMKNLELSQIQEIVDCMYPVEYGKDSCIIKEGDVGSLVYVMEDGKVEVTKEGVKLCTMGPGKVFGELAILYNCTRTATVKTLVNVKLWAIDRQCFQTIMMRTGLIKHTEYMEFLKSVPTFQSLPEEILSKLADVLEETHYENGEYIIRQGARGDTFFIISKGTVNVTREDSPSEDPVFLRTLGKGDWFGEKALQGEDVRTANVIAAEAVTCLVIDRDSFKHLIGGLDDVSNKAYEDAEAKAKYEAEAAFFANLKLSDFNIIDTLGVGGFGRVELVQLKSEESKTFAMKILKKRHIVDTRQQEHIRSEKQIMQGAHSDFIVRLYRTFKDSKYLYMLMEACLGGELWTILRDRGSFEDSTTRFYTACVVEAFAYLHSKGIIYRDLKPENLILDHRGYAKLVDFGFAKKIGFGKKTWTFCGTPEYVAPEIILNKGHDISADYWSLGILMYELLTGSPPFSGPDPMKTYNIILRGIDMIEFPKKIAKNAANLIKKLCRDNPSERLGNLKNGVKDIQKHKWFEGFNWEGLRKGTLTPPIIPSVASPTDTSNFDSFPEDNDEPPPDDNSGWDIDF
Experiment: [3H]cGMP binding assay
Conditions: SIN-1 500 μM 30 min
Experimental: HEK-293T cells were transiently transfected with either the WT-PKG-1α or the Y247FPKG-1α cDNA using Effectene transfection reagent (Qiagen), according to the manufacturer's instructions. Briefly, the cells were split the day before the transfection to low cell densities (25%) and were transfected 24 h later. After 48 h of transfection, the cells were incubated in DMEM serum free media containing 1% FBS and antibiotics for 4 h and then treated with or without SIN-1 (500 μM), for 30 min. This method produced an approximate 70% transfection efficiency of HEK-293T cells, as measured using green fluorescent protein vectors. […]
The batches of supernatant were pooled, and 2 μg of anti-PKG-1α antibody per mg of protein were added to the extract and rocked at 4° C. […] After 15 min of agitation at 4° C., the beads were pelleted by centrifugation, and the supernatant containing the PKG-1α protein was collected, quantified using Bradford reagent, and stored at −80° C.
To assay the binding of cGMP to WT- and Y247F-PKG-1α the enzymes were saturated with cGMP by incubating 50 μl aliquots of the diluted PKG constructs for 60 min at room temperature with 50 μl of [^3H]cGMP and 150 μl of cGMP-binding assay mixture (25 mM K2HPO4, 25 mM KH2PO4, 1 mM EDTA, pH 6.8, 2M NaCl, 200 μM 3-isobutyl-1-methylxanthine). […] The dissociation constant (Kd) values were determined using GraphPad Prism graphics.

3-morpholinosydnonimine N-ethylcarbamide [SIN-1]
Maximal [3H]cGMP binding to WT-PKG-1α: significantly attenuated
